The values below come from patent US10934274B2, “Quinoline derivatives as TAM RTK inhibitors” (Qurient Co., Ltd., priority 2015, dated 2021).

The target in one assay is T1, Axl (Homo sapiens, UniProt P30530).
T1 construct: purchased Life Technologies
T1 sequence (P30530 26-894): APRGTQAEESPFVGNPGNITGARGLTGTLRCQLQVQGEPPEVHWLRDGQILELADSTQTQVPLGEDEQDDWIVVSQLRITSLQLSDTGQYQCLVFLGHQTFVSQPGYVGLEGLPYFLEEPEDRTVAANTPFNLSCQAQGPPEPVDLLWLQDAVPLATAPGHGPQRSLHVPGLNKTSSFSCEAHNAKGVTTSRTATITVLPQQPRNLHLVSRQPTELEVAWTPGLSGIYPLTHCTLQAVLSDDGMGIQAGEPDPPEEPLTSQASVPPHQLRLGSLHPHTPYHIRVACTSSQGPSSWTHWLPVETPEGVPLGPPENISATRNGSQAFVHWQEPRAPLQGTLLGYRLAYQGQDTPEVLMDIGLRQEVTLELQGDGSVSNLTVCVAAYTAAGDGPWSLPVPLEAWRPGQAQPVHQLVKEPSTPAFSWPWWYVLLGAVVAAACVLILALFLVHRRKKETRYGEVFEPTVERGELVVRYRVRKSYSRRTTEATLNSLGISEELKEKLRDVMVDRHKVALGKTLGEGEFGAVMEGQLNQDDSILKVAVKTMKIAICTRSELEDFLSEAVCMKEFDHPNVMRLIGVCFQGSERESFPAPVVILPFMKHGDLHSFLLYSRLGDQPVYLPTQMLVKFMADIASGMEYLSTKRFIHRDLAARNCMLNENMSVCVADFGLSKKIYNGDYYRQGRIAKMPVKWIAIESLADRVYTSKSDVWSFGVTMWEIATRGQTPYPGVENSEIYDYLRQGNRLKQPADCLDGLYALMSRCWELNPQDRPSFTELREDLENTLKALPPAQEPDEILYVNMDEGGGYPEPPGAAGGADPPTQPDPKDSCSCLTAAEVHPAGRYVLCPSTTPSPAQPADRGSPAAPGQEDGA
The assay is described as follows: LanthaScreen Eu kinase binding assay, Axl. The note with it: Tracer 236. (In general: TR-FRET usually uses a lanthanide donor and a delayed reading to cut background.)

The target in the next assay is T2, Mer (Homo sapiens, UniProt Q12866).
T2 construct: purchased Life Technologies
T2 sequence (Q12866 21-999): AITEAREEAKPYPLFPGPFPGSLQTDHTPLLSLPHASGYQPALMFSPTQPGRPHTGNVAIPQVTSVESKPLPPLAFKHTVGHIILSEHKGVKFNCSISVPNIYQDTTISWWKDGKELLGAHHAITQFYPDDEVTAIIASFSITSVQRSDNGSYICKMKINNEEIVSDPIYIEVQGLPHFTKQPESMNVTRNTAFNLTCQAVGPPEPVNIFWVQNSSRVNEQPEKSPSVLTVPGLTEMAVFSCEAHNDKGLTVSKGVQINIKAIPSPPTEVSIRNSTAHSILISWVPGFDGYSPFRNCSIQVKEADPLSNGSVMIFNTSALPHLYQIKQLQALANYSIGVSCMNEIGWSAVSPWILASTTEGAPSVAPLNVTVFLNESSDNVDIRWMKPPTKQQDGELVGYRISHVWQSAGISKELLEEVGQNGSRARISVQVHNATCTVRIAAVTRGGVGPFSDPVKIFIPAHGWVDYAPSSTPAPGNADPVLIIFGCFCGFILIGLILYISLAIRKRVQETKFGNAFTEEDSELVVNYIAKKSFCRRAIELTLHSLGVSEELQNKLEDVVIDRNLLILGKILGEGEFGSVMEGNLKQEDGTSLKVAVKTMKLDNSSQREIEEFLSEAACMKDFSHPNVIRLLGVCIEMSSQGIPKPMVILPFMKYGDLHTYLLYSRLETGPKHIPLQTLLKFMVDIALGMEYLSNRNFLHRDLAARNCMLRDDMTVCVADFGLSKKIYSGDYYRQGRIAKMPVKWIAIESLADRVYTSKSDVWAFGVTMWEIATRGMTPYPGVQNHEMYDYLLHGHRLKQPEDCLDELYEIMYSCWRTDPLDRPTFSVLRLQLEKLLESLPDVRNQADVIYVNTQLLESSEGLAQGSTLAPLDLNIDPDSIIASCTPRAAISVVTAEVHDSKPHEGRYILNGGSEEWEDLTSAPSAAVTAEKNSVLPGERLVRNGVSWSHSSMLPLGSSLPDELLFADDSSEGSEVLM
Nature of the assay: LanthaScreen Eu kinase binding assay, Mer. The note with it: Tracer 236.

Another assay addresses T3, Met (Homo sapiens, UniProt P08581).
T3 construct: purchased Life Technologies
The assay is described as follows: LanthaScreen Eu kinase binding assay, Met. The note with it: Tracer 236, read-out: cMet kinase binding activity (Kd).

T3 sequence (P08581 25-1390): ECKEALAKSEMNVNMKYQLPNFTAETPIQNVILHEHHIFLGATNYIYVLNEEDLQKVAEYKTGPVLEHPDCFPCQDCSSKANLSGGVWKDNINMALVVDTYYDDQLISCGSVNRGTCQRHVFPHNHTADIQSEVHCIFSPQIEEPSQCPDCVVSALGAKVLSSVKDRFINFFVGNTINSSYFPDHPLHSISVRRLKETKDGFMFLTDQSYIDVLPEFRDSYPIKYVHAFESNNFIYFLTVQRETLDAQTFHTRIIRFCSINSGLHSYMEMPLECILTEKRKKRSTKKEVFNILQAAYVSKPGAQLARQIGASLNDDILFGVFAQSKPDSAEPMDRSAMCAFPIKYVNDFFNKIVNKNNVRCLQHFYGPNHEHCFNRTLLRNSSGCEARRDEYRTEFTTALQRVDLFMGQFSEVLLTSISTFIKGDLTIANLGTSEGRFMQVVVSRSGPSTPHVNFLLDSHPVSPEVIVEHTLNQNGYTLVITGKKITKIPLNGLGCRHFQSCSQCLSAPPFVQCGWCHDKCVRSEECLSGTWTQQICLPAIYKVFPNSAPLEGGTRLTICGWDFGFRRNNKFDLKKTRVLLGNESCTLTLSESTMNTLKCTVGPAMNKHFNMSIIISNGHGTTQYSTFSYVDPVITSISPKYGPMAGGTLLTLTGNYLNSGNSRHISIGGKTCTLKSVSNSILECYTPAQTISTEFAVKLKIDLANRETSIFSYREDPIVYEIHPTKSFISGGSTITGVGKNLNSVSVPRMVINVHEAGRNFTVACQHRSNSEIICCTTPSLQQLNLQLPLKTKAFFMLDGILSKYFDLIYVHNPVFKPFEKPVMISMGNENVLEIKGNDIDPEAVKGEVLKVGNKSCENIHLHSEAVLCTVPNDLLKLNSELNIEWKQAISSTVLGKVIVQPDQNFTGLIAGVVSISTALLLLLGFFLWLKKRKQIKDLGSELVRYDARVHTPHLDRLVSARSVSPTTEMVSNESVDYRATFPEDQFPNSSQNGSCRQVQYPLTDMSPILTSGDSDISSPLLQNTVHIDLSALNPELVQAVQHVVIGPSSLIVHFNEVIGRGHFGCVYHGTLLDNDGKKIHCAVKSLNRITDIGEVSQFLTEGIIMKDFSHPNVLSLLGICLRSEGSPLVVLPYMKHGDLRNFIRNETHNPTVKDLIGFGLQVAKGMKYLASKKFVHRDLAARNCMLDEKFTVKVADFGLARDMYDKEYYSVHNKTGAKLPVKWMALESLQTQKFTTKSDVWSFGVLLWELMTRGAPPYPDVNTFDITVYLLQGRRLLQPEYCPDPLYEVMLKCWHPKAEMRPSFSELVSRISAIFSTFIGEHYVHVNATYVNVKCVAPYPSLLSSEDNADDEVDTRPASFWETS

As for `CCOc1cn(-c2cnc(OC)nc2)nc1C(=O)Nc1ccc(Oc2ccnc3cc(OC)c(OC)cc23)cn1` [Compound 148], the Kd at Axl, at Mer and on Met was less than 100 nM in each case.
In the case of `CCOc1cn(-c2ccc(Cl)cc2F)nc1C(=O)Nc1ccc(Oc2ccnc3cc(OC)c(OC)cc23)cn1` [Compound 106], the Kd at Axl, on Mer and on Met was less than 100 nM throughout.
For `CCOc1cn(C2CCCN(C)C2)nc1C(=O)Nc1ccc(Oc2ccnc3cc(OC)c(OC)cc23)cc1F` (stereo not drawn) [Compound 211], the Kd at Axl, at Mer and at Met was 100 to 1000 nM throughout.
Turning to `CCOc1cn(-c2ccc(OC(F)(F)F)cc2Cl)nc1C(=O)Nc1ccc(Oc2ccnc3cc(OC)c(OC)cc23)cn1` [Compound 115], the equilibrium dissociation constant (Kd) on Axl, at Mer and at Met was less than 100 nM each time.
Take `CCOc1cn(-c2c(C)ccnc2C)nc1C(=O)Nc1ccc(Oc2ccnc3cc(OC)c(OC)cc23)cc1F` [Compound 191]: the Kd on Axl, at Mer and on Met was less than 100 nM throughout.
For `CCOc1cn(-c2cnc(N)nc2)nc1C(=O)Nc1ccc(Oc2ccnc3cc(OC)c(OC)cc23)cn1` [Compound 10], the dissociation constant (Kd) at Axl, on Mer and at Met was less than 100 nM throughout.
With `CCOc1cn(-c2ccc(C(F)(F)F)cc2C(F)(F)F)nc1C(=O)Nc1ccc(Oc2ccnc3cc(OC)c(OC)cc23)cn1` [Compound 105], the dissociation constant (Kd) at Axl, on Mer and at Met was less than 100 nM throughout.
Turning to `CCOc1cn(-c2cnc(N)nc2)nc1C(=O)Nc1ccc(Oc2ccnc3cc(OC)c(OC)cc23)c(F)c1` [Compound 141], the Kd on Axl, at Mer and on Met was less than 100 nM each time.
As to `CCOc1cn(-c2nccnc2C(F)(F)F)nc1C(=O)Nc1ccc(Oc2ccnc3cc(OC)c(OC)cc23)cn1` [Compound 162], the Kd at Axl, on Mer and at Met was less than 100 nM each time.
`CCOc1cn(-c2ncc(Cl)cc2C#N)nc1C(=O)Nc1ccc(Oc2ccnc3cc(OC)c(OC)cc23)cn1` [Compound 133]: the dissociation constant (Kd) on Axl, at Mer and on Met was less than 100 nM in each case.
On to `CCOc1cn(-c2cccnc2)nc1C(=O)Nc1ccc(Oc2ccnc3cc(OC)c(OC(F)(F)F)cc23)cn1` [Compound 199], for which the Kd at Axl was less than 100 nM; at Mer it was less than 100 nM; on Met, not below 1000 nM.
On to `CCOc1cn(-c2cnc(C)cn2)nc1C(=O)Nc1ccc(Oc2ccnc3cc(OC)c(OC)cc23)cn1` [Compound 160], for which the Kd at Axl, on Mer and on Met was less than 100 nM in each case.
Turning to `CCOc1cn(-c2noc(C)n2)nc1C(=O)Nc1ccc(Oc2ccnc3cc(OC)c(OC)cc23)cn1` [Compound 161], the dissociation constant (Kd) on Axl, at Mer and at Met was less than 100 nM in each case.
In the case of `CCOc1cn(-c2cnccc2CO)nc1C(=O)Nc1ccc(Oc2ccnc3cc(OC)c(OC)cc23)c(F)c1` [Compound 207], the Kd at Axl, at Mer and at Met was less than 100 nM in each case.
In the case of `CCOc1cn(-c2nccs2)nc1C(=O)Nc1ccc(Oc2ccnc3cc(OC)c(OC)cc23)cn1` [Compound 12], the Kd on Axl is less than 100 nM; at Mer, less than 100 nM; on Met, 100 to 1000 nM.
For the molecule `CCOc1cn(-c2cnccc2CO)nc1C(=O)Nc1ccc(Oc2ccnc3cc(OC)c(OC)cc23)cc1F` [Compound 209], the dissociation constant Kd at Axl, at Mer and at Met was less than 100 nM in each case.
Regarding `CCOc1cn(-c2cncn2C)nc1C(=O)Nc1ccc(Oc2ccnc3cc(OC)c(OC)cc23)cn1` [Compound 11], the Kd is less than 100 nM on Axl, less than 100 nM at Mer and 100 to 1000 nM at Met.
With `CCOc1cn(-c2cscn2)nc1C(=O)Nc1ccc(Oc2ccnc3cc(OC)c(OC)cc23)cn1` [Compound 13], the dissociation constant Kd at Axl, on Mer and at Met was less than 100 nM in each case.
With `CCOc1cn(-c2cnccc2C(C)(O)CO)nc1C(=O)Nc1ccc(Oc2ccnc3cc(OC)c(OC)cc23)cn1` (stereo not drawn) [Compound 205], the Kd at Axl, at Mer and on Met was less than 100 nM in each case.
For the molecule `CCOc1cnn(-c2ccc(C(F)(F)F)cc2C)c1C(=O)Nc1ccc(Oc2ccnc3cc(OC)c(OC)cc23)cn1` [Compound 102], the dissociation constant Kd at Axl is less than 100 nM; at Mer, 100 to 1000 nM; at Met, not below 1000 nM.
Regarding `CCOc1cn(-c2cnccc2CCO)nc1C(=O)Nc1ccc(Oc2ccnc3cc(OC)c(OC)cc23)cn1` [Compound 181], the dissociation constant (Kd) at Axl, at Mer and at Met was less than 100 nM throughout.
In the case of `CCOc1cn(-c2ccc(Cl)cc2CC)nc1C(=O)Nc1ccc(Oc2ccnc3cc(OC)c(OC)cc23)cn1` [Compound 111], the Kd on Axl, at Mer and on Met was less than 100 nM in each case.
Consider `CCOc1cn(-c2ccc(OC(F)(F)F)cc2Cl)nc1C(=O)Nc1ccc(Oc2ccnc3cc(OC)c(OC(F)(F)F)cc23)cn1` [Compound 201], for which the Kd was not below 1000 nM at Axl, 100 to 1000 nM on Mer and 100 to 1000 nM at Met.
For the molecule `CCOc1cn(-c2ccc(F)cc2F)nc1C(=O)Nc1ccc(Oc2ccnc3cc(OC)c(OC)cc23)cn1` [Compound 107], the dissociation constant (Kd) on Axl, at Mer and on Met was less than 100 nM throughout.
With `CCOc1cn(-c2cncs2)nc1C(=O)Nc1ccc(Oc2ccnc3cc(OC)c(OC)cc23)cn1` [Compound 14], the equilibrium dissociation constant (Kd) on Axl, on Mer and on Met was less than 100 nM throughout.
Regarding `CCOc1cnn(-c2ccc(C(F)(F)F)cc2C(F)(F)F)c1C(=O)Nc1ccc(Oc2ccnc3cc(OC)c(OC)cc23)cn1` [Compound 110], the dissociation constant Kd on Axl was less than 100 nM; on Mer it was 100 to 1000 nM; at Met it was less than 100 nM.
For the molecule `CCOc1cn(-c2cnccc2Cl)nc1C(=O)Nc1ccc(Oc2ccnc3cc(OC)c(OC)cc23)cn1` [Compound 183], the dissociation constant Kd on Axl, on Mer and at Met was less than 100 nM throughout.
With `CCOc1cn(-c2ccc(F)cc2C(F)(F)F)nc1C(=O)Nc1ccc(Oc2ccnc3cc(OC)c(OC)cc23)cn1` [Compound 104], the Kd on Axl, on Mer and at Met was less than 100 nM throughout.
For the molecule `CCOc1cn(-c2ccc(F)cc2C(C)C)nc1C(=O)Nc1ccc(Oc2ccnc3cc(OC)c(OC)cc23)cn1` [Compound 125], the dissociation constant Kd at Axl, at Mer and on Met was less than 100 nM in each case.
Consider `CCOc1cn(-c2ccc(C(F)(F)F)cc2F)nc1C(=O)Nc1ccc(Oc2ccnc3cc(OC)c(OC)cc23)cn1` [Compound 114], for which the Kd on Axl, on Mer and at Met was less than 100 nM in each case.
On to `CCOc1cn(-c2cncnc2C2CC2)nc1C(=O)Nc1ccc(Oc2ccnc3cc(OC)c(OC)cc23)cn1` [Compound 167], for which the dissociation constant Kd on Axl, at Mer and on Met was less than 100 nM each time.

In general, Kd refers to the concentration at which binding is half-saturated.
